The values below are quoted from earlier work in patent US10981928B2, “Methods of making low odor choline salts of an organic compound” (HALO LIFE SCIENCE, LLC, priority 2016, dated 2021).

The conditions of data set [1]: PEG 400 at 37° C.; comparison value.
The conditions of data set [2]: comparison value.

Converted amounts (≈) assume the structure as drawn.

As for `O=c1oc2c(O)c(O)cc3c(=O)oc4c(O)c(O)cc1c4c23` [ellagic acid], the “solubility in PEG 400” value in data set [1] was 8000 µg/mL (≈ 26.5 mM). The solubility in water in data set [2] is roughly 4 µg/mL (≈ 0.0132 mM).
